Assays:
[1] = system: IICR (IP3 induced calcium release) in CHO cells; test: Assay of IICR (IP3 induced calcium release)-inhibiting action; assay type: cell-based, Chinese hamster; conditions: Cricetulus griseus, CHO, CHO cells, 10 μM ATP, read-out: IICR level (percentage of inhibition); for inhibition at 10 µM: test compound 10 μmol; for inhibition at 30 µM: test compound 30 μmol; for inhibition at 100 µM: test compound 100 μmol
Method in brief: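 Inhibition (%) of the intracellular calcium increase triggered by 10 μM ATP, measured in CHO cells in BSS with calcium. Compound given 1 min after the buffer exchange and 2 min before ATP; values reported per compound concentration.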

[2] = system: SOCE (store operated calcium entry) in CHO cells; test: Assay of SOCE (store operated calcium entry)-inhibiting action; assay type: cell-based, Chinese hamster; conditions: Cricetulus griseus, CHO, CHO cells, thapsigargin, read-out: SOCE level (percentage of inhibition); for inhibition at 10 µM: test compound 10 μmol; for inhibition at 30 µM: test compound 30 μmol; for inhibition at 100 µM: test compound 100 μmol
Method in brief: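 CHO cells in calcium-free BSS received compound, then 1 μM thapsigargin 2 min later to deplete stores; after 9 min, 2 mM calcium chloride (final) added. Percent inhibition of the rise in intracellular calcium determined at various compound concentrations.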

Compound | inhibition at 10 µM [1] [%] | inhibition at 30 µM [1] [%] | inhibition at 100 µM [1] [%] | inhibition at 10 µM [2] [%] | inhibition at 30 µM [2] [%] | inhibition at 100 µM [2] [%]
CCCCN(CCC(=O)c1ccncc1)Cc1ccccc1 [Example 376, 2-(N-butyl-N-benzyl)aminoethyl-4-pyridylketone] | 18 | 84 | 51 | 21 | 0 | 27
CN1CCN(CCC(=O)c2ccc(Br)s2)CC1 [Example 363, 2-(N-methylpiperadino)ethyl-5-bromo-2-thienylketone] | 0 | 0 | 70 | 0 | 0 | 14
CC(C)N(CCO)CCC(=O)c1ccc(-c2ccccc2)cc1 [Example 298, 2-(N-2-hydroxyethylisopropyl)aminoethyl-4-biphenylketone] | 60 | 50 | 60 | 20 | 40 | 50
CN(CCO)CCC(=O)c1ccsc1 [Example 254, 2-(N-2-hydroxyethylmethyl)aminoethyl-3-thiophenylketone] | 0 | 30 | 40 | 0 | 0 | 0
CC(C)N(CCC(=O)c1ccc(C#N)cc1)Cc1ccccc1 [Example 308, 2-(N-benzylisopropyl)aminoethyl-4-cyanophenylketone] | 90 | 100 | 95 | 0 | 0 | 10
O=C(CCNCCS)c1ccc(Oc2ccccc2)cc1 [Example 112, 2-(N-mercaptoethyl)aminoethyl-4-phenoxyphenylketone] | 20 | 30 | 40 | 0 | 0 | 30
Cc1ccc(C(=O)CCN(Cc2ccccc2)C(C)C)s1 [Example 318, 2-(N-benzylisopropyl)aminoethyl-5-methyl-2-thienylketone] | 10 | 60 | 80 | 10 | 20 | 40
CC(C)(C)N(CCO)CCC(=O)c1nccs1 [Example 122, 2-(N-t-butylhydroxyethyl)aminoethyl-2-thiazolylketone] | 0 | 0 | 0 | 0 | 0 | 0
CC(C)N(CCO)CCC(=O)c1ccccc1 [Example 312, 2-(N-hydroxyethylisopropyl)aminoethylphenylketone] | 20 | 20 | 80 | 0 | 0 | 10
CC(C)(C)N(CCC(=O)c1ccncc1)Cc1ccccc1 [Example 210, 2-(N-t-butylbenzyl)aminoethyl-4-pyridylketone] | 0 | 20 | 0 | 0 | 10 | 30
CCCCN(CCC(=O)c1ccc(Br)s1)Cc1ccccc1 [Example 373, 2-(N-butyl-N-benzyl)aminoethyl-5-bromo-2-thienylketone] | 0 | 36 | 0 | 100 | 28 | 65
Cc1ccc(C(=O)CCN(CCO)C(C)C)o1 [Example 146, 2-(N-isopropylhydroxyethyl)aminoethyl-5-methyl-2-furylketone] | 50 | 30 | 90 | 0 | 0 | 0
CC(O)CNCCC(=O)c1ccc(Br)s1 (stereo not shown) [Example 360, 2-(N-2-hydroxypropyl)aminoethyl-5-bromo-2-thienylketone] | 0 | 0 | 70 | 10 | 0 | 20
O=C(CCNC(O)c1ccccc1)c1ccc(Br)s1 (stereo not shown) [Example 353, 2-(1-hydroxy-1-phenylmethyl)aminoethyl-5-bromo-2-thienylketone] | 60 | 0 | 20 | 0 | 0 | 7
CC(C)(C)N(CCO)CCC(=O)c1cnccn1 [Example 214, 2-(N-2-hydroxyethyl-t-butyl)aminoethyl-2-pyrazylketone] | 0 | 0 | 0 | 10 | 0 | 0
CC(C)N(CCO)CCC(=O)c1cc(Cl)sc1Cl [Example 203, 2-(N-isopropyl-2-hydroxyethyl)aminomethyl-3-(2,5-dichlorothiophenyl)ketone] | 40 | 90 | 100 | 50 | 20 | 10
CCc1nccnc1C(=O)CCN(Cc1ccccc1)C(C)(C)C [Example 188, 2-(N-t-butylbenzyl)aminoethyl-2-(3-ethyl)-pyrazylketone] | 50 | 90 | 100 | 0 | 0 | 20
CN(CCC(=O)c1ccsc1)Cc1ccccc1 [Example 236, 2-(N-benzylmethyl)aminoethyl-3-thiophenylketone] | 10 | 10 | 80 | 0 | 0 | 20
O=C(CCNCCN(CCO)CCC(=O)c1cnccn1)c1cnccn1 [Example 273, N,N-bis(2-pyrazoylethyl)-N-hydroxyethylethylenediamine] | 40 | 30 | 20 | – | 0 | 10
O=C(CCN1CCCCC1CO)c1ccncc1 (stereo not shown) [Example 217] | 0 | 20 | 50 | 10 | 0 | 20
CC(C)N(CCC(=O)c1ccc2c(Cl)cccc2c1)Cc1ccccc1 [Example 84, 2-(N-isopropylbenzyl)aminoethyl-5-chloro-2-naphthylketone] | 90 | 100 | 100 | 20 | 30 | 70
Cc1ccc(C(=O)CCN(CCO)CCO)o1 [Example 145, 2-(N-bishydroxyethyl)aminoethyl-5-methyl-2-furylketone] | 50 | 30 | 30 | 0 | 10 | 20
CCCCCCN(CCCCCC)CCC(=O)c1ccc(Cl)s1 [Example 385, 2-(N,N-dihexyl)aminoethyl-5-chloro-2-thienylketone] | 0 | 14 | 0 | 0 | 95 | 53
CC(C)N(CCO)CCC(=O)c1cccn1C [Example 169, 2-(N-isopropyl-2-hydroxyethyl)aminoethyl-2-(N-methylpyrrolyl)ketone] | 0 | 0 | 0 | 0 | 0 | 0
O=C(CCN(CCO)Cc1ccccc1)c1nccs1 [Example 290, 2-(N-2-hydroxyethylbenzyl)aminoethyl-2-thiazolylketone] | 40 | 60 | 90 | – | 0 | 0
O=C(CCN(CCO)Cc1ccccc1)c1ccc(Br)s1 [Example 327, 2-(N-benzylhydroxyethyl)aminoethyl-5-bromo-2-thienylketone] | 70 | 10 | 40 | 20 | 20 | 30
CC(C)N(CCC(=O)c1ccc(Cl)s1)Cc1ccccc1 [Example 266, 2-(N-benzylisopropyl)aminoethyl-5-chloro-2-thiophenylketone] | 0 | 0 | 70 | 0 | 20 | 40
CC(C)N(CCO)CCC(=O)c1ccc(F)cc1 [Example 166, 2-(N-hydroxyethylisopropyl)aminoethyl-4-fluorophenylketone] | 0 | 0 | 0 | 0 | 0 | 20
